From patent publication US8592175B2, “Nitroreductase enzymatic substrates” (bioMérieux, S.A., priority 2009, dated 2013)

What was measured:
Test in all cases: Color, fluorescence and growth of colonies on Columbia medium with nitroreductase substrate
Type in all cases: cell-based
Conditions in all cases: 40 mg substrate in 400 ml Columbia medium, 24 hours at 37° C.
[1] = system: Yersinia enterocolitica NCTC 11 176; design: key to Growth: NG: no growth; 0.5: low growth; 1: moderate growth; 2: good growth; key to Fluo.: fluorescence of the colonies / Col.: color of the colonies: —: no color/fluorescence
Experimental: (§1) 40 mg of each of the substrates were dissolved in 4 ml of dimethylsulfoxide and added to 400 ml of previously autoclaved Columbia medium. The 5 media were distributed in Petri dishes 90 mm in diameter at the rate of 20 ml per dish. Seventeen strains of microorganisms obtained from collections and belonging to various species of bacteria and yeasts are inoculated as spots of about 10 000 colony forming units. The media are incubated for 24 hours at 37° C. and then the colonies formed are examined visually and under a UV lamp at 365 nm.

[2] = system: Salmonella typhimurium NCTC 74; design: key to Growth: NG: no growth; 0.5: low growth; 1: moderate growth; 2: good growth; key to Fluo.: fluorescence of the colonies / Col.: color of the colonies: —: no color/fluorescence
Experimental: as §1

[3] = system: Streptococcus pyogenes NCTC 8 306; design: key to Growth: NG: no growth; 0.5: low growth; 1: moderate growth; 2: good growth; key to Fluo.: fluorescence of the colonies / Col.: color of the colonies: —: no color/fluorescence
Experimental: as §1

[4] = system: Listeria monocytogenes NCTC 11 994; design: key to Growth: NG: no growth; 0.5: low growth; 1: moderate growth; 2: good growth; key to Fluo.: fluorescence of the colonies / Col.: color of the colonies: —: no color/fluorescence
Experimental: as §1

[5] = system: Staphylococcus epidermidis NCTC 11 047; design: key to Growth: NG: no growth; 0.5: low growth; 1: moderate growth; 2: good growth; key to Fluo.: fluorescence of the colonies / Col.: color of the colonies: —: no color/fluorescence
Experimental: as §1

[6] = system: Pseudomonas aeruginosa NCTC 10 662; design: key to Growth: NG: no growth; 0.5: low growth; 1: moderate growth; 2: good growth; key to Fluo.: fluorescence of the colonies / Col.: color of the colonies: —: no color/fluorescence
Experimental: as §1

[7] = system: Bacillus subtilis NCTC 9 372; design: key to Growth: NG: no growth; 0.5: low growth; 1: moderate growth; 2: good growth; key to Fluo.: fluorescence of the colonies / Col.: color of the colonies: —: no color/fluorescence
Experimental: as §1

[8] = system: Enterococcus faecalis NCTC 775; design: key to Growth: NG: no growth; 0.5: low growth; 1: moderate growth; 2: good growth; key to Fluo.: fluorescence of the colonies / Col.: color of the colonies: —: no color/fluorescence
Experimental: as §1

[9] = system: Staphylococcus aureus NCTC 11 939; design: key to Growth: NG: no growth; 0.5: low growth; 1: moderate growth; 2: good growth; key to Fluo.: fluorescence of the colonies / Col.: color of the colonies: —: no color/fluorescence
Experimental: as §1

[10] = system: Providencia rettgeri NCTC 7 475; design: key to Growth: NG: no growth; 0.5: low growth; 1: moderate growth; 2: good growth; key to Fluo.: fluorescence of the colonies / Col.: color of the colonies: —: no color/fluorescence
Experimental: as §1

[11] = system: Staphylococcus aureus NCTC 6 571; design: key to Growth: NG: no growth; 0.5: low growth; 1: moderate growth; 2: good growth; key to Fluo.: fluorescence of the colonies / Col.: color of the colonies: —: no color/fluorescence
Experimental: as §1

[12] = system: Enterococcus faecium NCTC 7 171; design: key to Growth: NG: no growth; 0.5: low growth; 1: moderate growth; 2: good growth; key to Fluo.: fluorescence of the colonies / Col.: color of the colonies: —: no color/fluorescence
Experimental: as §1

[13] = system: Candida albicans ATCC 90 028; design: key to Growth: NG: no growth; 0.5: low growth; 1: moderate growth; 2: good growth; key to Fluo.: fluorescence of the colonies / Col.: color of the colonies: —: no color/fluorescence
Experimental: as §1

[14] = system: Candida glabrata NCPF 3 943; design: key to Growth: NG: no growth; 0.5: low growth; 1: moderate growth; 2: good growth; key to Fluo.: fluorescence of the colonies / Col.: color of the colonies: —: no color/fluorescence
Experimental: as §1

[15] = system: Escherichia coli NCTC 10 418; design: key to Growth: NG: no growth; 0.5: low growth; 1: moderate growth; 2: good growth
Experimental: as §1

[16] = system: Enterobacter cloacae NCTC 11 936; design: key to Growth: NG: no growth; 0.5: low growth; 1: moderate growth; 2: good growth
Experimental: as §1

[17] = system: Serratia marcescens NCTC 10 211; design: key to Growth: NG: no growth; 0.5: low growth; 1: moderate growth; 2: good growth
Experimental: as §1

C[n+]1ccc(C=Cc2ccc([N+](=O)[O-])cc2)c2ccccc21.[I-] [4NSMQ^+I, 4-(4′-nitrostyryl)-N-methylquinolinium iodide]
NG: Growth [3] | Growth [7] | Growth [9] | Growth [11] | Growth [13]
0.5: Growth [14]
Rust e: Col.: color of the colonies ([10]; examined visually)
Rust: Col.: color of the colonies ([1]; examined visually) | Col.: color of the colonies ([4]; examined visually) | Col.: color of the colonies ([8]; examined visually) | Col.: color of the colonies ([12]; examined visually) | Col.: color of the colonies ([16]; examined visually)
1: Growth [1] | Growth [2] | Growth [4] | Growth [5] | Growth [8] | Growth [12]
2: Growth [6] | Growth [10] | Growth [15] | Growth [16] | Growth [17]
—: Fluo.: fluorescence of the colonies ([1]; UV lamp at 365 nm) | Fluo.: fluorescence of the colonies ([2]; UV lamp at 365 nm) | Fluo.: fluorescence of the colonies ([3]; UV lamp at 365 nm) | Col.: color of the colonies ([3]; examined visually) | Fluo.: fluorescence of the colonies ([4]; UV lamp at 365 nm) | Fluo.: fluorescence of the colonies ([5]; UV lamp at 365 nm) | Col.: color of the colonies ([5]; examined visually) | Fluo.: fluorescence of the colonies ([6]; UV lamp at 365 nm) | Fluo.: fluorescence of the colonies ([7]; UV lamp at 365 nm) | Col.: color of the colonies ([7]; examined visually) | Fluo.: fluorescence of the colonies ([8]; UV lamp at 365 nm) | Fluo.: fluorescence of the colonies ([9]; UV lamp at 365 nm) | Col.: color of the colonies ([9]; examined visually) | Fluo.: fluorescence of the colonies ([10]; UV lamp at 365 nm) | Fluo.: fluorescence of the colonies ([11]; UV lamp at 365 nm) | Col.: color of the colonies ([11]; examined visually) | Fluo.: fluorescence of the colonies ([12]; UV lamp at 365 nm) | Fluo.: fluorescence of the colonies ([13]; UV lamp at 365 nm) | Col.: color of the colonies ([13]; examined visually) | Fluo.: fluorescence of the colonies ([14]; UV lamp at 365 nm) | Col.: color of the colonies ([14]; examined visually)
